# Assay results from US20250326792A1, “A FORMULATION FOR TREATMENT OF PIGMENTARY DISORDERS” (priority 2022, published 2025).
# PHPP = 3-Phenylpyrazolo[3,4-d]pyrimidine (N-terminal cap)
# Key:
# B16F10 cells = assay: Cell viability (XTT assay) in B16F10 cells; assay type: cell-based; details: 1000 μg/ml for about 48 hours
# Experimental: Culture and maintenance of cell lines: B16F10 cells were cultured in RPMI containing 10% fetal bovine serum, 100 units per millilitre (U/mL) penicillin, 0.1 mg/mL streptomycin, and 0.25 microgram per millilitre (μg/mL) amphotericin B at 37 degrees Celsius in a humidified 95% air/5% CO2 incubator. Drug treatment was done 24 hours after seeding. Cells were harvested 48 hours later and melanin content and tyrosinase activity determined in triplicate. […] […]
# B16F10 and NHEM cells were sub-cultured into 96-well culture plates at a density of 1×10^4 cells/well in 100 μL medium and after about 24 hours of incubation, the medium was discarded and replaced with 100 μL of a suitable medium (RPMI for B16F10 and DMEM for NHEM with 1% FBS) for starvation and then treated in the presence or absence of various concentrations of test compound and positive controls (IBMX and α-MSH). […] At the end of the incubation, about 50 μL of XTT test solution prepared by mixing about 5 mL of XTT-labeling reagent and about 100 μL of electron coupling reagent is added to each well and after about 4 hours of incubation at 37° C. and a about 5% CO2 incubator, the absorbance was measured on an ELISA reader at a test wavelength of 490 nm.
# NHEM cells = assay: Melanin content assay in NHEM cells; assay type: cell-based, Human; details: for % increase in melanin content compared to control / Fold change in melanin content: NHEM CELLS
# Experimental: (§1) Culture and maintenance of cell lines: B16F10 cells were cultured in RPMI containing 10% fetal bovine serum, 100 units per millilitre (U/mL) penicillin, 0.1 mg/mL streptomycin, and 0.25 microgram per millilitre (μg/mL) amphotericin B at 37 degrees Celsius in a humidified 95% air/5% CO2 incubator. Drug treatment was done 24 hours after seeding. Cells were harvested 48 hours later and melanin content and tyrosinase activity determined in triplicate. NHEM cells were cultured in DMEM containing 10% fetal bovine serum, 100 units per milliliter (U/mL) penicillin, 0.1 mg/mL streptomycin, and 0.25 microgram per millilitre (μg/mL) amphotericin B at 37 degrees Celsius in a humidified 95% air/5% CO2 incubator. Drug treatment was done 24 hours after seeding. Cells were harvested 48 hours later and melanin content and tyrosinase activity determined in triplicate.
# (§2) IS103 was dissolved in water for injection or DMSO to prepare stock solution of about 50 mg/ml. The stock solution was used for preparation of subsequent dilutions in solvent to achieve working dilutions for treatment ranging 0.1 μg/ml to 1000 μg/ml.
# Cells were seeded in a 6-well plate (2×10^4 cells/well) and incubated overnight to allow the cells to adhere. After treating with various test samples for 4 or 5 days, cells were washed with phosphate-buffered saline (PBS), trypsinized, counted, and then lysed in 1 N NaOH at 100° C. for about 1 hour. The melanin content in each sample was calculated by comparison of absorbance at 400 nm of unknown samples with a standard curve obtained using synthetic melanin. IS103 enhances melanin synthesis in a dose dependent manner without significant toxicity. B16F10 and NHEM cells were treated with different concentrations of IS103 ranging from 0.1 to 1000 μg/ml and analysed melanin contents in cells. It was observed that IS103 was able to enhance pigmentation of B16F10 and NHEM cells in a dose-dependent manner (Table 18 and FIGS. 4 and 5). […] To assess the toxicity of the IS103 peptide, cell viability was analyzed by MTT assay.
# Tyrosinase [1] = assay: Tyrosinase activity assay (L-DOPA) in B16F10 cells; assay type: cell-based; details: for % increase in tyrosinase activity compared to control / Change in tyrosinase activity: TYROSINASE ACTIVITY table
# Experimental: as §1, §2
# (§3) Tyrosinase activity was determined using L-DOPA as a substrate. Briefly, B16F10 and NHEM cells were seeded in a 6-well plate (2×10^4 cells/well) and incubated for overnight. The cells were then treated with or without the test compounds for 46 hours and were washed twice with ice cold PBS and extracted by sonication in 100 μl of 0.1M Tris-HCl buffer (pH 7.2) containing 1% Nonidet P-40, 0.01% SDS, 100 μM phenyl methyl sulfonyl fluoride, and 1 μg/ml aprotinin and then centrifuged at 10,000 g for about 10 minutes at 4° C. The supernatants collected were used for enzyme assay and its protein content was estimated by method of Bradford using BSA as standard. Samples of cell extract supernatant were incubated in duplicate for 1 hour at 37° C. in 1 ml of 0.1M sodium phosphate buffer (pH 7.4) containing 0.1% L-DOPA. The absorbance was then monitored at 450 nm and compared with purified mushroom tyrosinase (Sigma). The standard curve was prepared limiting linearity within the range of experimental value.
# Tyrosinase [2] = assay: Tyrosinase activity assay (L-DOPA) in NHEM cells; assay type: cell-based, Human; details: for % increase in tyrosinase activity compared to control / Tyrosinase activity: TYROSINASE ACTIVITY table
# Experimental: as §1, §2, §3
# [3] = NHEM cells, different concentrations, about 48 hours
substance,measurement,setting,value
PHPP-Tyr-Arg-Ser-Arg-Lys-Tyr-Ser-Ser-Trp-Tyr-NH2 ({PHPP}-YRSRKYSSWY-NH2) [IS103],effect on cell viability,B16F10 cells,did not exert any significant effect on cell viability
same,% increase in melanin content compared to control,NHEM cells; 0.1 μg/mL,0%
same,Fold change in melanin content,NHEM cells; 0.1 μg/mL,1.0 ± 0.20
same,% increase in melanin content compared to control,NHEM cells; 1 μg/mL,0%
same,Fold change in melanin content,NHEM cells; 1 μg/mL,1.0 ± 0.20
same,% increase in melanin content compared to control,NHEM cells; 10 μg/mL,0%
same,Fold change in melanin content,NHEM cells; 10 μg/mL,1.0 ± 0.20
same,% increase in melanin content compared to control,NHEM cells; 50 μg/mL,40%
same,Fold change in melanin content,NHEM cells; 50 μg/mL,1.4 ± 0.20
same,% increase in melanin content compared to control,NHEM cells; 100 μg/mL,130%
same,Fold change in melanin content,NHEM cells; 100 μg/mL,2.3 ± 0.20
same,% increase in melanin content compared to control,NHEM cells; 250 μg/mL,160%
same,Fold change in melanin content,NHEM cells; 250 μg/mL,2.6 ± 0.20
same,% increase in melanin content compared to control,NHEM cells; 500 μg/mL,180%
same,Fold change in melanin content,NHEM cells; 500 μg/mL,2.8 ± 0.20
same,% increase in melanin content compared to control,NHEM cells; 1000 μg/mL,165%
same,Fold change in melanin content,NHEM cells; 1000 μg/mL,2.7 ± 0.20
same,effect on melanin synthesis (FIG. 5),NHEM cells; [3],enhanced melanin synthesis in a dose-dependent manner
same,increase in Tyrosinase activity when compared to control,"Tyrosinase [1]; B16F10 CELLS, 250 μg/mL",55.33%
same,effect on tyrosinase activity (FIG. 6),"Tyrosinase [1]; B16F10 cells, different concentrations, about 48 hours",increased tyrosinase activity
same,% increase in tyrosinase activity compared to control,"Tyrosinase [1]; B16F10 CELLS, 0.1 μg/mL",0%
same,Change in tyrosinase activity,"Tyrosinase [1]; B16F10 CELLS, 0.1 μg/mL",15.0 ± 1.60
same,% increase in tyrosinase activity compared to control,"Tyrosinase [1]; B16F10 CELLS, 1 μg/mL",3%
same,Change in tyrosinase activity,"Tyrosinase [1]; B16F10 CELLS, 1 μg/mL",18.0 ± 2.20
same,% increase in tyrosinase activity compared to control,"Tyrosinase [1]; B16F10 CELLS, 10 μg/mL",10.33%
same,Change in tyrosinase activity,"Tyrosinase [1]; B16F10 CELLS, 10 μg/mL",25.3 ± 1.20
same,% increase in tyrosinase activity compared to control,"Tyrosinase [1]; B16F10 CELLS, 50 μg/mL",24%
same,Change in tyrosinase activity,"Tyrosinase [1]; B16F10 CELLS, 50 μg/mL",39.0 ± 2.20
same,% increase in tyrosinase activity compared to control,"Tyrosinase [1]; B16F10 CELLS, 100 μg/mL",42.33%
same,Change in tyrosinase activity,"Tyrosinase [1]; B16F10 CELLS, 100 μg/mL",57.3 ± 4.20
same,% increase in tyrosinase activity compared to control,"Tyrosinase [1]; B16F10 CELLS, 250 μg/mL",55.33%
same,Change in tyrosinase activity,"Tyrosinase [1]; B16F10 CELLS, 250 μg/mL",70.3 ± 1.70
same,% increase in tyrosinase activity compared to control,"Tyrosinase [1]; B16F10 CELLS, 500 μg/mL",62%
same,Change in tyrosinase activity,"Tyrosinase [1]; B16F10 CELLS, 500 μg/mL",77.0 ± 3.00
same,% increase in tyrosinase activity compared to control,"Tyrosinase [1]; B16F10 CELLS, 1000 μg/mL",60.33%
same,Change in tyrosinase activity,"Tyrosinase [1]; B16F10 CELLS, 1000 μg/mL",75.3 ± 2.50
same,increase in Tyrosinase activity when compared to control,"Tyrosinase [2]; NHEM CELLS, 250 μg/mL",55.67%
same,effect on tyrosinase activity (FIG. 7),Tyrosinase [2]; [3],increased tyrosinase activity
same,% increase in tyrosinase activity compared to control,"Tyrosinase [2]; NHEM CELLS, 0.1 μg/mL",−0.67%
same,Tyrosinase activity,"Tyrosinase [2]; NHEM CELLS, 0.1 μg/mL",13.7 ± 1.24
same,% increase in tyrosinase activity compared to control,"Tyrosinase [2]; NHEM CELLS, 1 μg/mL",3.67%
same,Tyrosinase activity,"Tyrosinase [2]; NHEM CELLS, 1 μg/mL",18.0 ± 3.30
same,% increase in tyrosinase activity compared to control,"Tyrosinase [2]; NHEM CELLS, 10 μg/mL",10.67%
same,Tyrosinase activity,"Tyrosinase [2]; NHEM CELLS, 10 μg/mL",25.0 ± 0.80
same,% increase in tyrosinase activity compared to control,"Tyrosinase [2]; NHEM CELLS, 50 μg/mL",22.67%
same,Tyrosinase activity,"Tyrosinase [2]; NHEM CELLS, 50 μg/mL",37.0 ± 3.00
same,% increase in tyrosinase activity compared to control,"Tyrosinase [2]; NHEM CELLS, 100 μg/mL",45.33%
same,Tyrosinase activity,"Tyrosinase [2]; NHEM CELLS, 100 μg/mL",59.7 ± 1.90
same,% increase in tyrosinase activity compared to control,"Tyrosinase [2]; NHEM CELLS, 250 μg/mL",55.67%
same,Tyrosinase activity,"Tyrosinase [2]; NHEM CELLS, 250 μg/mL",70.0 ± 2.20
same,% increase in tyrosinase activity compared to control,"Tyrosinase [2]; NHEM CELLS, 500 μg/mL",61%
same,Tyrosinase activity,"Tyrosinase [2]; NHEM CELLS, 500 μg/mL",75.3 ± 2.50
same,% increase in tyrosinase activity compared to control,"Tyrosinase [2]; NHEM CELLS, 1000 μg/mL",61%
same,Tyrosinase activity,"Tyrosinase [2]; NHEM CELLS, 1000 μg/mL",75.3 ± 2.60
